Data on 16 molecules can be found in patent US20250230165A1, “HETEROCYCLIC COMPOUNDS FOR USE IN THE TREATMENT OF CANCER” (ARTIOS PHARMA LIMITED, priority 2021, published 2025).

For this test, the target named is T1, Human Polθ polymerase domain (aa1820-2590) (Homo sapiens, UniProt O75417).
T1 construct: Human Polθ polymerase domain (aa1820-2590) was expressed in E. coli; made in house; host or cells: E. coli
T1 sequence (O75417 1820-2590): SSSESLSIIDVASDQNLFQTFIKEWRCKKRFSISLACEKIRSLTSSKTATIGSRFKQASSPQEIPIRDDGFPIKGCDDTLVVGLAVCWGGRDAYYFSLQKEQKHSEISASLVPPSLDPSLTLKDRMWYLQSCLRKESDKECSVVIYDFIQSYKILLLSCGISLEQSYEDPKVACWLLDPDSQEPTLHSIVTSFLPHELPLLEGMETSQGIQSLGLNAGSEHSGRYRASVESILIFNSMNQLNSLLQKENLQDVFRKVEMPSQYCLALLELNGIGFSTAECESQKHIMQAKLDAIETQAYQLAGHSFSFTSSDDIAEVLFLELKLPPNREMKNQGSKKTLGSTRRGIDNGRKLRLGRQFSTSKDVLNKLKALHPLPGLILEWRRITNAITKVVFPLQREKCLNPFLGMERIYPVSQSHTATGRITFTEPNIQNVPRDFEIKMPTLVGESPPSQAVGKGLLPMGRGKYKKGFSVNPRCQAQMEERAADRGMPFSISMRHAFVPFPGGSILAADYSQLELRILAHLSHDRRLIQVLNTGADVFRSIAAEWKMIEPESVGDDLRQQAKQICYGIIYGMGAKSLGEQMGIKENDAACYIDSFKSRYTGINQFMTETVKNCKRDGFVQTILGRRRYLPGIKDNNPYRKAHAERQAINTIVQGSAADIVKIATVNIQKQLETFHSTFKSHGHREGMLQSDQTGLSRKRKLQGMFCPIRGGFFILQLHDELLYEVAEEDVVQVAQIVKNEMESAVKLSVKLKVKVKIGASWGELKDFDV
Kind of test: Polθ Polymerase Domain Kinact/KI Assay (PicoGreen). The format is biochemical. The settings on record: 0.8 nM Polθ, 100 nM DNA substrate, kobs vs [I] fit for 2-step covalent inhibitor. Put shortly:
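Enzyme 0.8 nM, annealed DNA substrate 100 nM, […]; 25 mM Tris pH 7.5, 5% glycerol, 0.01% Triton X-100, 0.1 mg/ml BSA, 1 mM DTT, 1% DMSO. Quench with EDTA at timepoints to 60 min; PicoGreen read. kobs from time courses → Kinact/KI.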

Take `C=C(CN(C)C)C(=O)N1CC(C(F)CCCN2C[C@H]3CC(=O)N(c4cc(C(F)(F)F)cc(C)n4)[C@@H]3C(=O)N(C)c3cccc(Cl)c32)C1` (stereo partly drawn) [Example 300, (3aR,11aS)-6-chloro-5-(4-(1-(2-((dimethylamino)methyl)acryloyl)azetidin-3-yl)-4-fluorobutyl)-10-methyl-1-(6-methyl-4-(trifluoromethyl)pyridin-2-yl)-1,3a,4,5,10,11a-hexahydro-2H-benzo[b]pyrrolo[2,3-f][1,4]diazocine-2,11(3H)-dione]: the Kinact/Kl was 3.93e+06 M⁻¹ s⁻¹.

With `C=CC(=O)N1Cc2ccc(CN3C[C@H]4CC(=O)N(c5cc(C(F)(F)F)cc(C)n5)[C@@H]4C(=O)N(C)c4cccc(Cl)c43)cc2[C@@H]1CC#N` (racemic) [Example 288b, 2-((S/R)-2-acryloyl-6-(((3aR,11aS)-6-chloro-10-methyl-1-(6-methyl-4-(trifluoromethyl)pyridin-2-yl)-2,11-dioxo-1,2,3,3a,4,10,11,11a-octahydro-5H-benzo[b]pyrrolo[2,3-f][1,4]diazocin-5-yl)methyl)isoindolin-1-yl)acetonitrile], the Kinact/Kl amounted to 500000 M⁻¹ s⁻¹.

Turning to `C=CC(=O)N1CCC12CCN(CCN1C[C@H]3CC(=O)N(c4cc(C(F)(F)F)cc(C)n4)[C@@H]3C(=O)N(C)c3cccc(F)c31)C2` (single isomer, unassigned) [Example 21b], the Kinact/Kl is 140000 M⁻¹ s⁻¹.

The molecule `C=CC(=O)N1Cc2ccc(CN3C[C@H]4CC(=O)N(c5cc(C(F)(F)F)cc(C)n5)[C@@H]4C(=O)N(C)c4cccc(Cl)c43)nc2C1` [Example 276, (3aR,11aS)-5-((6-acryloyl-6,7-dihydro-5H-pyrrolo[3,4-b]pyridin-2-yl)methyl)-6-chloro-10-methyl-1-(6-methyl-4-(trifluoromethyl)pyridin-2-yl)-1,3a,4,5,10,11a-hexahydro-2H-benzo[b]pyrrolo[2,3-f][1,4]diazocine-2,11(3H)-dione] registered a Kinact/Kl of 1.76e+06 M⁻¹ s⁻¹.

“(3aR,11aS)-5-(2-((3S/R,9aS/R)-8-acryloyl-3-methyl-4-oxooctahydro-2H-pyrazino[1,2-a]pyrazin-2-yl)ethyl)-6-fluoro-10-methyl-1-(6-methyl-4-(trifluoromethyl)pyridin-2-yl) 1,3a,4,5,10,11a-hexahydro-2H-benzo[b]pyrrolo[2,3-f][1,4]diazocine-2,11(3H)-dione [Example 110]” returned a Kinact/Kl of 1e+06 M⁻¹ s⁻¹.

Molecule `C=C(CN(C)C)C(=O)N1CCC[C@H]1c1ccc(CN2C[C@H]3CC(=O)N(c4cc(C(F)(F)F)cc(C)n4)[C@@H]3C(=O)N(C)c3cccc(F)c32)cc1` (racemic) [Example 171b, (3aR,11aS)-5-(4-((S/R)-1-(2-((di-methylamino)-methyl)acryloyl)-pyrrolidin-2-yl)-benzyl)-6-fluoro-10-methyl-1-(6-methyl-4-(tri-fluoromethyl)-pyridin-2-yl)-1,3a,4,5,10,11a-hexahydro-2H-benzo[b]pyrrolo [2,3-f][1,4]diazo-cine-2,11(3H)-dione] returned a Kinact/Kl of 1.62e+06 M⁻¹ s⁻¹.

For `Cc1cc(C(F)(F)F)cc(N2C(=O)C[C@@H]3CN(CCCCCNC(=O)/C=C/CN(C)C)c4c(C)cccc4N(C)C(=O)[C@H]32)n1` [Example 83, (E)-N-(5-((3aR,11aS)-6,10-dimethyl-1-(6-methyl-4-(trifluoromethyl)pyridin-2-yl)-2,11-dioxo-1,2,3,3a,4,10,11,11a-octahydro-5H-benzo[b]pyrrolo[2,3-f][1,4]diazocin-5-yl)pentyl)-4-(dimethylamino)but-2-enamide], the Kinact/Kl was 620000 M⁻¹ s⁻¹.

`C=CC(=O)N1CC[C@H](N(C)CCN2C[C@H]3CC(=O)N(c4cc(C(F)(F)F)cc(C)n4)[C@@H]3C(=O)N(C)c3cccc(Cl)c32)[C@H](F)C1` [Example 67, (3aR,11aS)-5-(2-(((3R,4S)-1-acryloyl-3-fluoropiperidin-4-yl)(methyl)amino)ethyl)-6-chloro-10-methyl-1-(6-methyl-4-(trifluoromethyl)pyridin-2-yl)-1,3a,4,5,10,11a-hexahydro-2H-benzo[b]pyrrolo[2,3-f][1,4]diazocine-2,11(3H)-dione] showed a Kinact/Kl of 2.32e+06 M⁻¹ s⁻¹.

Turning to `C=CC(=O)N1Cc2nc(CN3C[C@H]4CC(=O)N(c5cc(C(F)(F)F)cc(C)n5)[C@@H]4C(=O)N(C)c4cccc(C)c43)sc2C1` [Example 315, (3aR,11aS)-5-((5-acryloyl-5,6-di-hydro-4H-pyrrolo [3,4-d]thiazol-2-yl)-methyl)-6,10-dimeth-yl-1-(6-methyl-4-(trifluoromethyl)-pyridin-2-yl)-1,3a,4,5,10,11a-hexahydro-2H-benzo[b]pyrrolo [2,3-f][1,4]diazocine-2,11(3H)-dione], the Kinact/Kl is 1.79e+06 M⁻¹ s⁻¹.

With `C=C(CN(C)C)C(=O)N1CC[C@H](COCCN2C[C@H]3CC(=O)N(c4cc(C(F)(F)F)cc(C)n4)[C@@H]3C(=O)N(C)c3cccc(C)c32)C1` [Example 181, (3aR,11aS)-5-(2-(((S)-1-(2-((dimeth-ylamino)methyl)-acryloyl)pyrrolidin-3-yl)methoxy)eth-yl)-6,10-dimethyl-1-(6-methyl-4-(trifluoromethyl)-pyridin-2-yl)-1,3a,4,5,10,11a-hexahydro-2H-benzo[b]pyrrolo [2,3-f][1,4]diazo-cine-2,11(3H)-dione], the Kinact/Kl worked out at 2.26e+06 M⁻¹ s⁻¹.

On to `C=CC(=O)N1Cc2nc(CN3C[C@H]4CC(=O)N(c5cc(C(F)(F)F)cc(C)n5)[C@@H]4C(=O)N(C)c4cccc(Cl)c43)ccc2C1CO` (stereo partly drawn) [Example 239, (3aR,11aS)-5-((6-acryloyl-5-(hydroxymethyl)-6,7-dihydro-5H-pyrrolo[3,4-b]pyridin-2-yl)methyl)-6-chloro-10-methyl-1-(6-methyl-4-(trifluoromethyl)pyridin-2-yl)-1,3a,4,5,10,11a-hexahydro-2H-benzo[b]pyrrolo[2,3-f][1,4]diazocine-2,11(3H)-dione], for which the Kinact/Kl is 730000 M⁻¹ s⁻¹.

As for `C=CC(=O)N1CCN2CCN(CCN3C[C@H]4CC(=O)N(c5cc(C(F)(F)F)cc(C)n5)[C@@H]4C(=O)N(C)c4cccc(Cl)c43)CC2C1` (stereo partly drawn) [Example 14, (3aR,11aS)-5-(2-(8-acryloyloctahydro-2H-pyrazino[1,2-a]pyrazin-2-yl)ethyl)-6-chloro-10-methyl-1-(6-methyl-4-(trifluoromethyl)pyridin-2-yl)-1,3a,4,5,10,11a-hexahydro-2H-benzo[b]pyrrolo[2,3-f][1,4]diazocine-2,11(3H)-dione], the Kinact/Kl came out at 2.05e+06 M⁻¹ s⁻¹.

`C=CC(=O)N1Cc2cc(CN3C[C@H]4CC(=O)N(c5cc(C(F)(F)F)cc(C)n5)[C@@H]4C(=O)N(C)c4cccc(C)c43)cnc2[C@H]1CO` (racemic) [Example 233, (3aR,11aS)-5-(((S/R)-6-acryloyl-7-(hydroxymethyl)-6,7-dihydro-5H-pyrrolo[3,4-b]pyridin-3-yl)methyl)-6,10-dimethyl-1-(6-methyl-4-(trifluoromethyl)pyridin-2-yl)-1,3a,4,5,10,11a-hexahydro-2H-benzo[b]pyrrolo[2,3-f][1,4]diazocine-2,11(3H)-dione] showed a Kinact/Kl of 2.99e+06 M⁻¹ s⁻¹.

`C=CC(=O)N1CCC(n2cnc(CN3C[C@H]4CC(=O)N(c5cc(C(F)(F)F)cc(C)n5)[C@@H]4C(=O)N(C)c4cccc(C)c43)n2)CC1` [Example 204, (3aR,11aS)-5-((1-(1-acryloylpiperidin-4-yl)-1H-1,2,4-triazol-3-yl)methyl)-6,10-dimethyl-1-(6-methyl-4-(trifluoromethyl)pyridin-2-yl)-1,3a,4,5,10,11a-hexahydro-2H-benzo[b]pyrrolo [2,3-f][1,4]diazocine-2,11(3H)-dione] came in with a Kinact/Kl of 980000 M⁻¹ s⁻¹.

Regarding `C=CC(=O)N1Cc2nc(CN3C[C@H]4CC(=O)N(c5cc(C(F)(F)F)cc(C)n5)[C@@H]4C(=O)N(C)c4cccc(C)c43)oc2C1` [Example 316, (3aR,11aS)-5-((5-acryloyl-5,6-di-hydro-4H-pyrrolo [3,4-d]oxazol-2-yl)-methyl)-6,10-dimethyl-1-(6-meth-yl-4-(trifluorometh-yl)pyridin-2-yl)-1,3a,4,5,10,11a-hexahydro-2H-benzo[b]pyrrolo [2,3-f][1,4]diazo-cine-2,11(3H)-dione], the Kinact/Kl is 610000 M⁻¹ s⁻¹.

`Cc1cc(C(F)(F)F)cc(N2C(=O)C[C@@H]3CN(CCOCC4CN(C(=O)C5=CCCN(C)C5)C4)c4c(C)cccc4N(C)C(=O)[C@H]32)n1` [Example 197, (3aR,11aS)-6,10-dimethyl-5-(2-((1-(1-methyl-1,2,5,6-tetrahydropyridine-3-carbonyl)azeti-din-3-yl)methoxy)-ethyl)-1-(6-methyl-4-(trifluoromethyl)-pyridin-2-yl)-1,3a, 4,5,10,11a-hexa-hydro-2H-benzo [b]pyrrolo[2,3-f] [1,4]diazocine-2,11(3H)-dione] came in with a Kinact/Kl of 1.67e+06 M⁻¹ s⁻¹.
